Like-named read-outs stand apart in the source and are kept apart here.
Columns and labels:
[1] = system: β-catenin-dependent Wnt-pathway; assay: TopFlash luciferase reporter assay, CHIR99021-stimulated, HCC1395; type: cell-based; conditions: for Emax: read-out: HCC1395 TopFlash Efficacy; for fold improvement in the activity compared to 4a: TopFlash IC50 vs 4a
Text: Both stimulations abolish formation of the destruction complex, a multiprotein complex consisting of Axin, adenomatous polyposis coli (APC), glycogen synthase kinase three beta (GSK3β), and casein kinase one alpha (CK1α). Upon inactivation of the complex, β-catenin accumulates in the cytoplasm and translocates into the nucleus where it interacts with transcription factors. These downstream events are quantified by a Luciferase transcription-based readout assay (TopFlash assay).

[2] = system: MDA-MB-468 TNBC cell line; assay: MTT survival assay MDA-MB-468; type: cell-based; conditions: Table S2
Description: (§1) Indicated TNBC cell lines were detached and resuspended at 120,000 cells/ml and added into each well of a transparent 384-well plate in the final volume of 20 µl/well. The cells were maintained in DMEM containing 10% FBS at 37°C, 5% CO2 overnight. Next day, the medium in each well was replaced by 40 μl of the fresh one containing the indicated concentrations of compounds. In case of drug combination experiments, each compound dilution was delivered in corresponding well in 20 μl of medium. […] After incubation for 3–4 days, depending on the cell line, the medium in each well was replaced by 25 μl of 0.5 mg/ml Thiazolyl blue solution in 1xPBS following by incubation for 3 h at 37°C. Then the solution was removed and 25 μl DMSO was added into each well. Absorbance at 510 nm was measured in a Tecan Infinite M200 PRO plate reader.

HCC1395 TNBC cell line = assay: MTT survival assay HCC1395; type: cell-based; conditions: Table S2; for IC50: read-out: MTT HCC-1395 IC50
Description: as §1

HCC1395 cells = assay: Cytotoxicity by Renilla luciferase under CMV promoter
Description: (§2) The simplicity of the scaffold combined with synthetic accessibility allows building a library of compounds and performing structure activity relationship (SAR) studies of the three main parts of the molecule: the top part, the linker and the core (Figure 2).
(§3) The synthesized compounds were used to explore SAR of three defined areas of investigation (Figure 2). All compounds were tested in the HCC1395 TNBC cell line using the GSK3β inhibitor to induce β-catenin signaling since 4a acted downstream of GSK3β (Figure 2). Both inhibition of β-catenin signaling measured by the TopFlash reporter and cytotoxicity measured by the Renilla reporter were assessed.
(§4) The Wnt3a or CHIR99021-stimulated luciferase activity in HCC1395 TNBC cell line stably transfected with the TopFlash reporter was analyzed essentially as described for the BT-20 TNBC cell line ([Shaw et al., 2019b]; [Koval et al., 2021]). Reporter cells were seeded at 10,000 cells/well in a white opaque 384-well plate in the final volume of 20 μl of DMEM medium supplemented with 10% FCS. The cells were maintained incubated at 37°C, 5% CO2 overnight for attachment. Subsequently, they were transfected by a plasmid encoding constitutively expressed Renilla luciferase under the CMV promoter overall as described in the manufacturer’s protocol using 12 μg/ml of DNA and 40 μl/ml XtremeGENE nine reagent. The next day, the medium in each well was replaced with a 10 μl of fresh medium containing compound of interest, and, after 1 h of preincubation with the compounds, additional 10 μl of medium supplemented with Wnt3a [purified as described ([Willert et al., 2003]; [Koval and Katanaev, 2011])] or CHIR99021 were added creating respective final concentrations of 2.5 μg/ml or 5 μM of each. In case of other signal transduction reporters, no additional stimulation was performed. Compound dilutions were prepared by serial dilution in DMSO and diluted with the amount of medium necessary to obtain their final concentrations indicated on the figures and tables and maintain concentration of DMSO of 0.5% in all assay points. After overnight incubation, the supernatant in each well was removed, and the luciferase activity was measured as described ([Dyer et al., 2000]; [Huber et al., 2021]; [Pellissier et al., 2021]). The culture medium was completely removed from all wells of the plate. Finally, the luciferase activity of the firefly and Renilla luciferases was detected sequentially in individual wells of a 384-well plate through injection of corresponding measurement solutions and immediate reading (400 ms integration time) in Infinite M Plex multifunctional plate reader with injection module.

HCC1806 TNBC cell line = assay: MTT survival assay HCC1806; type: cell-based; conditions: Table S2; for IC50: read-out: MTT HCC1806 IC50
Description: as §1

[3] = system: MDA-MB-231 TNBC cell line; assay: MTT survival assay MDA-MB-231; type: cell-based
Description: as §1

BT-20 TNBC cell line = assay: MTT survival assay BT-20; type: cell-based; conditions: Table S2; for IC50: read-out: MTT BT-20 IC50
Description: as §1

[4] = system: non-cancerous breast epithelial cell line MCF10a; assay: MTT survival assay MCF10a; type: cell-based; conditions: for selectivity over the control cells (difference in IC50, MCF10a vs HCC1395): MTT IC50 ratio MCF10a / HCC1395
Description: as §1

in vitro = conditions: human
Description: as §2, §3, §4

[5] = Homo sapiens, HCC1395, HCC1395, stimulation with CHIR99021 (GSK3β inhibitor)
[6] = Homo sapiens, HCC1395, HCC1395, stimulation with CHIR99021 (GSK3β inhibitor), read-out: HCC1395 TopFlash IC50
[7] = Homo sapiens, MDA-MB-231, Figure 3B heatmap, read-out: IC50, μM (MDA-MB-231)
[8] = Homo sapiens, MDA-MB-231, Table S2, read-out: MTT MDA-MB-231 IC50
[9] = Homo sapiens, MCF-10A, Table S2, read-out: MTT MCF10 IC50
[10] = HCC1395, stimulation with CHIR99021 (GSK3β inhibitor)

| Compound | MTT MDA-MB-231 plateau ([3]; Table S2) | Emax [1, 5] | IC50 [1, 6] | IC50 ([2]; Homo sapiens, MDA-MB-468) | IC50 (HCC1395 TNBC cell line; Homo sapiens, HCC1395) | GSK HCC1395 Renilla Comments (HCC1395 cells) | IC50 (in vitro; HCC1395 Cytotoxicity IC50) | IC50 (HCC1806 TNBC cell line; Homo sapiens, HCC1806) | MTT HCC1806 Comments (HCC1806 TNBC cell line) | IC50 [3, 8] | IC50 (BT-20 TNBC cell line; Homo sapiens, BT-20) | IC50 [4, 9] | MTT MCF10 Comments ([4]; Table S2) | MTT MDA-MB-231 Comments ([3]; Table S2) | also measured |
| --- | --- | --- | --- | --- | --- | --- | --- | --- | --- | --- | --- | --- | --- | --- | --- |
| 2-chloro-N-(2-methoxybenzyl)quinazolin-4-amine [Compound 8a] | 53.88 | – | – | – | – | – | – | – | – | – | – | – | – | – | TopFlash activity in words ([1]; HCC1395, CHIR99021): no longer active; GSK HCC1395 plateau ([1]; Table S2): 100; IC50 ([1]; Table S2, TopFlash, GSK3β inhibitor stimulation, read-out: GSK HCC1395 IC50): 42.8 µM; IC50 [2]: 3.19 µM; MTT MDA-MB-468 plateau [2]: 69.23; MTT HCC1395 plateau (HCC1395 TNBC cell line): 100; IC50 (HCC1395 TNBC cell line): 7.83 µM; IC50 (HCC1395 cells; read-out: HCC1395 Cytotoxicity IC50, Renilla luciferase, HCC1395): > 100 µM; MTT HCC1806 plateau (HCC1806 TNBC cell line): 100; IC50 (HCC1806 TNBC cell line): 22.7 µM; IC50 ([3]; Table S2, read-out: MTT MDA-MB-231 IC50): 2.65 µM; MTT BT-20 plateau (BT-20 TNBC cell line): 100; IC50 (BT-20 TNBC cell line): 2.96 µM; selectivity over the control cells (difference in IC50, MCF10a vs HCC1395) [4]: less than 3 fold; MTT MCF10 plateau ([4]; Table S2): 100; IC50 ([4]; Table S2, read-out: MTT MCF10 IC50): 10.5 µM |
| COc1cccc(CNc2ncnc3sccc23)c1 [Compound 4c, N-(3-methoxybenzyl)thieno[2,3-d]pyrimidin-4-amine] | 100 | 58.6 ± 22.8% | 4.96 ± 1.65 µM | 1.61 µM | 1.08 µM | Non-toxic | > 50 µM | > 50 µM | Inactive | 9.37 µM | 2.89 µM | > 50 µM | Inactive | – | IC50 (HCC1395 cells; human): > 100 µM; IC50 [3, 7]: > 10 µM |
| Fc1ccc(CNc2ncnc3sccc23)cc1 [Compound 4g, N-(4-fluorobenzyl)thieno[2,3-d]pyrimidin-4-amine] | 100 | 78.6 ± 29.8% | 4.15 ± 0.91 µM | 1.46 µM | 1.96 µM | Non-toxic | > 50 µM | 2.37 µM | – | 25.4 µM | 1.63 µM | > 10 µM | Inactive | – | fold improvement in the activity compared to 4a [1]: 2 fold |
| Clc1cccc(CNc2ncnc3sccc23)c1 [Compound 4i, N-(3-chlorobenzyl)thieno[2,3-d]pyrimidin-4-amine] | 100 | 56.2 ± 4% | 8.4 ± 5.01 µM | 1.44 µM | 1.74 µM | Non-toxic | > 50 µM | 2.2 µM | – | 18.7 µM | 5.24 µM | > 10 µM | Inactive | – | – |
| Clc1ccc(CNc2ncnc3sccc23)cc1 [Compound 4j, N-(4-chlorobenzyl)thieno[2,3-d]pyrimidin-4-amine] | 92.63 | 74.6 ± 12% | 3.19 ± 1.64 µM | 3.93 µM | 1.42 µM | – | > 50 µM | 26.2 µM | – | 45.3 µM | 6.29 µM | 20.4 µM | – | – | fold improvement in the activity compared to 4a [1]: 2 fold |
| Cc1cccc(CNc2ncnc3sccc23)c1 [Compound 4n, N-(3-methylbenzyl)thieno[2,3-d]pyrimidin-4-amine] | – | 52.9 ± 6.8% | 3.76 ± 1.9 µM | 0.48 µM | 1.05 µM | – | > 50 µM | > 10 µM | Inactive | > 10 µM | 4.72 µM | > 10 µM | Inactive | Inactive | – |
| Cc1ccc(CNc2ncnc3sccc23)cc1 [Compound 4o, N-(4-methylbenzyl)thieno[2,3-d]pyrimidin-4-amine] | – | 72.7 ± 19.5% | 4.61 ± 1.91 µM | 1.02 µM | 1.35 µM | – | > 50 µM | 2.71 µM | – | > 10 µM | 2.85 µM | 6.18 µM | – | Inactive | fold improvement in the activity compared to 4a [1]: 2 fold |
| COc1cc(CNc2ncnc3sccc23)ccc1Cl [Compound 4q, N-(4-chloro-3-methoxybenzyl)thieno[2,3-d]pyrimidin-4-amine] | – | 68.5 ± 2.9% | 1.33 ± 0.07 µM | 0.57 µM | 0.63 µM | – | > 50 µM | > 10 µM | Inactive | > 10 µM | 0.96 µM | > 10 µM | Inactive | Inactive | – |
| c1ccc(CCNc2ncnc3sccc23)cc1 [Compound 5g, N-phenethylthieno[2,3-d]pyrimidin-4-amine] | – | 89% | 2.64 ± 1.22 µM | > 50 µM | 4.59 µM | Non-toxic | > 50 µM | > 50 µM | – | > 50 µM | > 50 µM | > 50 µM | – | – | IC50 [3, 7]: > 10 µM; IC50 ([4]; Homo sapiens, MCF-10A, Figure 3B heatmap, read-out: IC50, μM (MCF10)): > 10 µM |
| CN(CCc1ccccc1)c1ncnc2sccc12 [Compound 5j, N-methyl-N-phenethylthieno[2,3-d]pyrimidin-4-amine] | 92.68 | 100% | 2.04 ± 2.55 µM | 0.92 µM | 2.07 µM | – | > 50 µM | 17.2 µM | – | 4.71 µM | 1.63 µM | 1.53 µM | – | – | HCC1395 TopFlash Efficacy [1, 10]: 100 ± 0%; selectivity over the control cells (difference in IC50, MCF10a vs HCC1395) [4]: less than 3 fold |
| COc1ccc(CNc2ncnc3ccccc23)cc1 [Compound 9c, N-(4-methoxybenzyl)quinazolin-4-amine] | – | 81.5% | 4.76 ± 0.23 µM | 0.44 µM | 1.17 µM | – | – | > 10 µM | Inactive | > 10 µM | 3.81 µM | 7.94 µM | – | Inactive | HCC1395 TopFlash Efficacy [1, 10]: 81.5 ± 10.61%; IC50 (in vitro): > 50 µM |
| Clc1ccc(CNc2ncnc3ccccc23)cc1 [Compound 9e, N-(4-chloro)quinazolin-4-amine] | 100 | – | – | 2.22 µM | 0.92 µM | – | – | 11.4 µM | – | 26.9 µM | 9.6 µM | > 10 µM | – | – | Emax ([1]; Homo sapiens, HCC1395, stimulation with CHIR99021 (GSK3β inhibitor)): 96 ± 5.7%; IC50 ([1]; Homo sapiens, HCC1395, stimulation with CHIR99021 (GSK3β inhibitor), read-out: HCC1395 TopFlash IC50): 2.18 ± 0.85 µM; IC50 (in vitro): > 50 µM; IC50 ([3]; Homo sapiens, MDA-MB-231, read-out: IC50, μM (MDA-MB-231)): > 10 µM |
